{"source": "paper PMC7710018", "about": "“Restoration of motor learning in a mouse model of Rett syndrome following long-term treatment with a novel small-molecule activator of TrkB” (Disease Models & Mechanisms, 2020)", "key": {"5-HT3 (h)": {"biological_target": "T1, 5-HT3 (h) (Homo sapiens, UniProt P46098)", "T1 construct": "Cerep, Inc. (contract screen)", "T1 sequence (P46098 24-478)": "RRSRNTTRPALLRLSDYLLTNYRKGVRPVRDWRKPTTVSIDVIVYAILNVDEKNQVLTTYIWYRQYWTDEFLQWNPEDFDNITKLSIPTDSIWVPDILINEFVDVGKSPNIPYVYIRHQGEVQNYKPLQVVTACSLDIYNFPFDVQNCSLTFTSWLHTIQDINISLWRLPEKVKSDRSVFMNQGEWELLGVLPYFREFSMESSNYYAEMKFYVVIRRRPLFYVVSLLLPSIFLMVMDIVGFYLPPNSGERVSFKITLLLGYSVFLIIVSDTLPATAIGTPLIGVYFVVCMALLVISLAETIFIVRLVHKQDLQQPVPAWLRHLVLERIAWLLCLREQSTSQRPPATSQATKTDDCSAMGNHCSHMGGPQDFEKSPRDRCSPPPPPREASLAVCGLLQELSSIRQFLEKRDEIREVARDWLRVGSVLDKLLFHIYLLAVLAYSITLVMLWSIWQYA", "assay": "Cerep ExpresSProfile radioligand binding", "settings": "10 micromolar, antagonist radioligand", "method": "(§1) To evaluate the relative binding specificity of LM22A-4 ([Massa et al., 2010]) and PTX-BD4-3, binding to a broad range of 55 pharmacologically relevant receptors, including numerous neurotransmitter and G-protein coupled receptors was assessed using standard radioligand competition binding assays (ExpressSProfile) performed by Cerep, Inc. (Seattle, WA, USA). In addition, ADME-Tox analysis was performed by Cerep, Inc. All experimental conditions are described on the Cerep website (www.cerep.fr). […]\n(§2) Table S1. In vitro binding assays. An ExpresSProfile screen of PTX-BD4-3 binding to a panel of pharmacologically relevant receptors was conducted by Cerep, Inc.\n(§3) (Eurofins Panlabs, MO). The results are expressed as percent inhibition of control specific binding obtained in the presence of 10 micromolar PTX-BD4-3. In this assay, values below 50% indicate no specific binding of PTX-BD4-3. The assay was negative for PTX-BD4-3 binding to all of the 55 receptors in the screen.\n(§4) (also on this page, place not known: 2B 5‐HT 3 5‐HT 5a 5‐HT 6 5‐HT 7 (agonis t VPAC 1 V 1 Ca 2+ K V SK Ca Na + Cl ‐ 5‐HT Disease Models & Mechanisms: doi:10.1242/dmm.044685: Supplementary information Disease Models & Mechanisms • Supplementary information)"}, "5-HT7 (h)": {"biological_target": "T2, 5-HT7 (h) (Homo sapiens, UniProt P34969)", "T2 construct": "Cerep, Inc. (contract screen)", "T2 sequence (P34969 whole entry)": "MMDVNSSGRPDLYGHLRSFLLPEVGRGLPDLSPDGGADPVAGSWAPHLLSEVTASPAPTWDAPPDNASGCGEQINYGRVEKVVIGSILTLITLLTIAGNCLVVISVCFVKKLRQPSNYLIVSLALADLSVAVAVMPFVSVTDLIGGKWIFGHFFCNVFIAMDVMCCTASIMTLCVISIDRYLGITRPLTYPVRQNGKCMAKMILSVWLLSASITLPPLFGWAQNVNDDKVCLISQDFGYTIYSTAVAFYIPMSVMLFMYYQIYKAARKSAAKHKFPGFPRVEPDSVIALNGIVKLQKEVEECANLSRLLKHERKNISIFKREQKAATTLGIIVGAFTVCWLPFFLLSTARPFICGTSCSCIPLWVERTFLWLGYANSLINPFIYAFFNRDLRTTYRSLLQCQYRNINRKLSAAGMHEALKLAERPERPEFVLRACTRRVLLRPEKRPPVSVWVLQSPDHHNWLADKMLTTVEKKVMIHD", "assay": "Cerep ExpresSProfile radioligand binding", "settings": "10 micromolar, agonist radioligand", "method": "as §1, §2, §3, §4"}, "ERK": {"tested_on": "ERK", "assay": "In vivo TrkB signaling, western blot of hippocampus and mPFC", "set-up": "species or system mouse", "settings": "male Mecp2 null mice, 50 mg/kg i.p. once daily 5 days, 1 h after last injection, vs saline", "method": "(§5) Animals were given either single or repeated doses of PTX-BD4-3 (50 mg/kg, i.p.) or vehicle (saline) and then sacrificed for tissue harvesting and western blot analysis of phosphorylated and total TrkB (pTrkB/TrkB), AKT (also known as AKT1) (pAKT/AKT) and ERK (also known as MAPK) (pERK/ERK), respectively, in the hippocampus and medial prefrontal cortex (mPFC).\n(§6) Fig. 4. PTX-BD4-3 activates TrkB signaling in vivo following systemic administration in null male Mecp2 mutant mice. Null mice were treated for 5 days with once daily injections of PTX-BD4-3 (open bars, 50 mg/kg, i.p.) or saline (black bars, vehicle) and then sacrificed 1 h after the last injection. Brain lysates from the hippocampus and medial prefrontal cortex (mPFC) were processed for western blot analysis of phosphorylated and total TrkB (pTrkB^Y817/TrkB), AKT (pAKT/AKT) and ERK (pERK/ERK) as described in the Materials and Methods. For detection of total TrkB, AKT and ERK, blots were concomitantly probed with the respective total protein antibodies and each of the three bands quantitated as indicated by arrows. For ERK, the pair of bands (consistent with ERK1 and ERK2 isoforms) indicated by the brackets was quantitated together as one value. For each tissue, the same blot and images for total protein (TrkB, AKT, ERK, actin) are shown here in triplicate as an adjacent reference to phospho-protein detection. For detection of phospho-proteins in the hippocampus, blots were probed separately with the three indicated phospho antibodies. For detection in the mPFC, blots were probed separately for pTrkB and probed for pAKT and pERK concomitantly; and for the latter two, the same blot and image are shown here in duplicate as an adjacent reference to phospho-protein detection. ^§P<0.01 (compared to vehicle); *P<0.05 (compared to vehicle); Student's t-test.\n(§7) Frozen tissues were lysed in RIPA lysis buffer (150 mM NaCl, 50 mM Tris, pH 7.4, 1 mM EDTA, 1% Triton X-100 or 1% NP40, 10% glycerol, 1 mM phenylmethylsulfonyl fluoride, Na3VO4 and protease inhibitor cocktail). Lysates were mixed with 4× NuPAGE LDS loading buffer and dithiothreitol, and 50 μg protein was loaded per lane on a NuPAGE 4-12% Bis-Tris gradient gel and transferred to polyvinylidene difluoride membrane (run at 100 V for 1.5 h). […]"}, "AKT": {"tested_on": "AKT", "assay": "In vivo TrkB signaling, western blot of hippocampus and mPFC", "set-up": "species or system mouse", "settings": "male Mecp2 null mice, 50 mg/kg i.p. once daily 5 days, 1 h after last injection, vs saline", "method": "as §5, §6, §7"}, "TrkB": {"tested_on": "TrkB", "assay": "In vivo TrkB signaling, western blot of hippocampus and mPFC", "set-up": "species or system mouse", "settings": "male Mecp2 null mice, vs saline", "method": "as §5, §6, §7"}, "[1]": {"settings": "read-out: % Inhibition of Control Specific Binding 1st"}, "[2]": {"settings": "read-out: % Inhibition of Control Specific Binding 2nd"}, "[3]": {"settings": "read-out: % Inhibition of Control Specific Binding Mean"}}, "note": "Read-outs that look alike come from different tables or passages of the source."}
{"smiles": "COCCN(C)C(=O)c1cc(C(=O)N(C)CCOC)cc(C(=O)N(C)CCOC)c1", "note": "[PTX-BD4-3, benzene-1,3,5-tricarboxylic acid tris-[(2-methoxy-ethyl)-methyl-amide]]", "values": [{"measurement": "inhibition at 10 µM", "setting": "5-HT3 (h); [1]", "value": 6.9, "unit": "%"}, {"measurement": "inhibition at 10 µM", "setting": "5-HT3 (h); [2]", "value": 13.4, "unit": "%"}, {"measurement": "inhibition at 10 µM", "setting": "5-HT3 (h); [3]", "value": 10.1, "unit": "%"}, {"measurement": "inhibition at 10 µM", "setting": "5-HT7 (h); [1]", "value": 8.1, "unit": "%"}, {"measurement": "inhibition at 10 µM", "setting": "5-HT7 (h); [2]", "value": 14.7, "unit": "%"}, {"measurement": "inhibition at 10 µM", "setting": "5-HT7 (h); [3]", "value": 11.4, "unit": "%"}, {"measurement": "pERK/ERK", "setting": "ERK", "value": "no significant effect"}, {"measurement": "pAKT/AKT", "setting": "AKT", "value": "significantly increased"}, {"measurement": "pTrkB/TrkB", "setting": "TrkB; 50 mg/kg i.p. once daily 5 days, 1 h after last injection, hippocampus and mPFC", "value": "significantly increased"}, {"measurement": "expression of total TrkB, AKT or ERK", "setting": "TrkB; 50 mg/kg i.p.", "value": "No differences"}]}
